Assay results: patent US8686224B2, “Plant defense signal peptides” (priority 2005, dated 2014)
Non-standard residues stand in square brackets, D forms with d. Residues, ends and D or L forms follow the SMILES beside them. Primed or numbered codes have the meaning given here. No end group written: not given here. *: point of attachment. APDP″ = photoaffinity cross-linker coupled to Cys through a disulfide bond, [N-]=[N+]=Nc1ccc(C(=O)NCCCCNC(=O)CCS*)c(O)c1; Tyr(3-I) = N[C@@H](Cc1ccc(O)c(I)c1)C(=O)O

Legend:
[1] = test system: Arabidopsis suspension cultured cells; assay: Alkalinization assay with Arabidopsis suspension cultured cells; assay type: cell-based, Arabidopsis thaliana
Procedure: For the alkalinization assay, cells suspensions are grown in a volume of 40 ml in a 125 ml flask. Tobacco and Arabidopsis cells are typically grown for 3-5 days before use. Tomato cells are typically grown for 4-7 days before use. Soybean cells are generally grown for 3-7 days before use. Preferably, cells are in mid to log or log phase when they are to be used for the alkalinization assay. A 1 ml pipette tip with the end cut off (to prevent clogging of the tip with the cells) is used to aliquot 1 ml of the cells from the suspension into a well in a 24-well culture cluster plate. The flask is swirled between aliquots to ensure that the cells remain evenly dispersed throughout the cell suspension and an roughly equivalent number of cells is provided to each well. The plate(s) are then shaken at 160 rpm for 1 hour. Small aliquots ([…]) of extracted peptide fractions are then added to the wells. After 20 min, the pH of the cell media is measured and recorded.
Alkalinization Assay. Arabidopsis suspension cells were grown with shaking in the dark in 125 mL flasks, using 40 mL NT media as previously described (Pearce et al. Proc. Natl. Acad. Sci. USA 98:12843-12847, 2001). The cells were transferred weekly (2.5 mL) and used for assays 3-5 days after transfer. One mL aliquots of cells were transferred to wells of 24-well culture plates and allowed to equilibrate for one hour while agitated on a rotary shaker at 160 rpm. Aliquots of 1-10 μL from extracts or fractions eluted from HPLC columns were added to cells and the pH of the media was monitored after 20 min.
Alkalinization assay. Medium alkalinization activity of Arabidopsis suspension cultured cells by AtPep1 analogs was analyzed as previously described for systemin (Pearce et al., Science 253:895-897, 1991), RALF (Pearce et al. Proc. Natl. Acad. Sci. USA 98:12843-12847, 2001), HypSys peptides (Pearce and Ryan. J. Biol. Chem. 278:30044-30050, 2003; Pearce et al., Nature 411:817-820, 2001), and AtPep1 (supra). The alkalinization activity of azido-Cys-AtPep1 were carried out after incubation the analog with cells in darkness for 10 min, when the pH was recorded.
Analogs of AtPep1 from the C-terminus of AtPep1 were synthesized and assayed in the alkalinization assay. One mL aliquots of 4 day old Arabidopsis cells were allowed to equilibrate on an orbital shaker at 180 rpm for one hour. A 10 μL aliquot of each peptide solution was added to the cells. Peptide concentrations of 0.25 nM, 2.5 nM, and 25 nM were tested. After 20 min, the pH of the media was recorded.
The 15-mer from the carboxy-terminus of AtPep1 ([…] (SEQ ID NO: 78)) was substituted with alanine at each position to assess which amino acids were necessary for the alkalinizing activity. […] The set of substituted 15-mer peptides was assayed using four-day-old Arabidopsis cells. […] of each peptide (2.5 pmoles) was added to 1 ml of cells to make a final concentration of 2.5 nM. After 20 min, the pH of the media was recorded. The data is the average of three separate experiments.

[2] = molecular target: T1, AtPep1 receptor (At1g73080, AtPEPR1) (Arabidopsis thaliana, UniProt Q9SSL9); assay: Binding assay of 125I1-Tyr-AtPep1 with Arabidopsis suspension cultured cells
T1 sequence (Q9SSL9 29-1123): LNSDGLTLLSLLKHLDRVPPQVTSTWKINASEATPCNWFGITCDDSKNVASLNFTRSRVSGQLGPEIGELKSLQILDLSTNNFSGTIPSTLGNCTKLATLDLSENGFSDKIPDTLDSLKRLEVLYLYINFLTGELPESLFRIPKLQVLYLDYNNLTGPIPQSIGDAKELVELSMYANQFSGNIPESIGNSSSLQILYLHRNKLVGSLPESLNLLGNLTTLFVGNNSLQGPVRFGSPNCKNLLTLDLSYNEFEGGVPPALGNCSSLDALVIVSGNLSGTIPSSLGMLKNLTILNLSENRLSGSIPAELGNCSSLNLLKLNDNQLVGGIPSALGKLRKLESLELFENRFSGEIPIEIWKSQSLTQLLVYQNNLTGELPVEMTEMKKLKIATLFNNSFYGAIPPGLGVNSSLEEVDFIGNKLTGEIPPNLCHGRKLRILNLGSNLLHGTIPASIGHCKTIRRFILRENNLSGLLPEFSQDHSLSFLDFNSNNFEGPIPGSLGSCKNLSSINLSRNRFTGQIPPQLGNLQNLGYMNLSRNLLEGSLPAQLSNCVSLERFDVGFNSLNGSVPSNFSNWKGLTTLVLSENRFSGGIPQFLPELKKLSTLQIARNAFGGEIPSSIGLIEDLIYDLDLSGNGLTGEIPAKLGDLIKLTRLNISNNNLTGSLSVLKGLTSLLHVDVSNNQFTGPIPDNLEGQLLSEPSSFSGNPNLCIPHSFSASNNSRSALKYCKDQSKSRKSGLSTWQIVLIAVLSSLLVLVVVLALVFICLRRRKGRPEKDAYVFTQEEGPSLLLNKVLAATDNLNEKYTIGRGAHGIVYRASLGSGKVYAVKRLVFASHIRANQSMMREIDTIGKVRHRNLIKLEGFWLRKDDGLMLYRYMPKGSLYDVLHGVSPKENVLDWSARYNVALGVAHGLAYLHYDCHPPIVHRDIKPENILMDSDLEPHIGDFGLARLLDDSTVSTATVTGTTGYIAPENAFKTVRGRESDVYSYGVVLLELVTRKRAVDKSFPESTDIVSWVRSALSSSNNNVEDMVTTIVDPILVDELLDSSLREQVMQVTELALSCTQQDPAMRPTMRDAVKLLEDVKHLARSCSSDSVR
Procedure: Binding assays. […] The filtered cells were washed three times with 5 mL of cold MS medium containing 3% sucrose, suspended in 1 mL MS medium containing 3% sucrose in a glass test tube, and analyzed for total radioactivity in a gamma-ray counter (Isodata 2020; Isodata Inc., Palatine, Ill.).

[3] = test system: P. syringae pv. tomato DC3000 (Pst DC3000); assay: Pst DC3000 inoculation of Arabidopsis leaves with peptide pre-infiltration; assay type: in vivo, Pseudomonas syringae; settings: wild type, cfu/cm^2 4 days after infection; AtPep1 10 nM solution
Source text: The resistance to P. irregulare requires the JA signaling pathway in Arabidopsis (Staswick et al, Plant J. 15: 747-754, 1998), and AtPep peptides induced PDF1.2, a marker gene for the JA response (Huffaker et al., Proc. Natl. Acad. Sci. USA 103: 10098-10103, Huffaker and Ryan, Proc. Natl. Acad. Sci. USA 104: 10732-10736, 2007). […] In order to examine this possibility, Arabidopsis plants were inoculated with P. syringae pv. tomato DC3000 (Pst DC3000) with or without AtPep1 pre-infiltration. Pst DC3000 was extracted from the infected leaves 4 days after infection and colony forming units (cfu/cm^2) were calculated. […] The reduction of Pst DC3000 growth was also not observed when the double mutant, pepr1-1/pepr2-1, was pre-infiltrated with AtPep1. […] Pre-infiltration of AtPep2-6 also attenuated Pst DC3000 growth to different degrees.
To assess the importance of AtPEPR1 and AtPEPR2 in the resistance to Pst DC3000 after infiltration of AtPep1, T-DNA insertional mutants were inoculated. When 1 μM AtPep1 was infiltrated into leaves one day prior to Pst DC3000 inoculation, the size of the necrotic regions were reduced in both wild type and single mutant lines, pepr1-1 and pepr2-1. […] Similar results were obtained when another set of mutant lines, pepr1-2, pepr2-2 and pepr1-2/pepr2-2, was used.

AtPEPR1 = molecular target: T2, AtPEPR1 (Arabidopsis thaliana, UniProt Q9SSL9); assay: Medium alkalinization of transgenic tobacco cells expressing AtPEPR1; assay type: cell-based; settings: for change in pH: 2.5 nanomolar
T2 construct: Tobacco cells were transformed with a CaMV-35S-AtPEPR1 gene; expressed in transfected cells; host or cells: tobacco suspension-cultured cells (Agrobacterium-mediated, CaMV 35S promoter)
T2 sequence (Q9SSL9 29-1123): T1 sequence (Q9SSL9 29-1123)
Source text: Tobacco cells were transformed with a CaMV-35S-AtPEPR1 gene to determine whether the foreign receptor protein was targeted to the cell surface, where, in response to AtPep1, it would activate intracellular signaling to effect the alkalinization of the medium of the transgenic tobacco cells. Expression of the AtPEPR1 gene was confirmed by RT-PCR analysis of RNA from three independently transformed tobacco cell lines. […] AtPep2-7 was also supplied to the transgenic tobacco cells expressing AtPEPR1.
To clarify whether AtPEPR2 binds to AtPep1, the AtPEPR2 coding region was fused to the CaMV 35S promoter and introduced into tobacco suspension-cultured cells by Agrobacterium. Tobacco cells expressing AtPEPR1 and GUS genes were also created as positive and negative controls, respectively. […] These transgenic lines were analyzed for alkalinizing activity as previously described (Pearce et al., Proc. Natl. Acad. Sci. USA 98, 12843-12847, 2001).
The response to all AtPep peptides in transgenic tobacco cells expressing either AtPEPR1 or AtPEPR2 was analyzed by the medium alkalinization assay.

OsPEPR1 = assay: Medium alkalinization of transgenic tobacco cells expressing OsPEPR1; assay type: cell-based, rice; settings: for EC50: read-out: half-maximal activity
Chain of OsPEPR1 (as listed by the source): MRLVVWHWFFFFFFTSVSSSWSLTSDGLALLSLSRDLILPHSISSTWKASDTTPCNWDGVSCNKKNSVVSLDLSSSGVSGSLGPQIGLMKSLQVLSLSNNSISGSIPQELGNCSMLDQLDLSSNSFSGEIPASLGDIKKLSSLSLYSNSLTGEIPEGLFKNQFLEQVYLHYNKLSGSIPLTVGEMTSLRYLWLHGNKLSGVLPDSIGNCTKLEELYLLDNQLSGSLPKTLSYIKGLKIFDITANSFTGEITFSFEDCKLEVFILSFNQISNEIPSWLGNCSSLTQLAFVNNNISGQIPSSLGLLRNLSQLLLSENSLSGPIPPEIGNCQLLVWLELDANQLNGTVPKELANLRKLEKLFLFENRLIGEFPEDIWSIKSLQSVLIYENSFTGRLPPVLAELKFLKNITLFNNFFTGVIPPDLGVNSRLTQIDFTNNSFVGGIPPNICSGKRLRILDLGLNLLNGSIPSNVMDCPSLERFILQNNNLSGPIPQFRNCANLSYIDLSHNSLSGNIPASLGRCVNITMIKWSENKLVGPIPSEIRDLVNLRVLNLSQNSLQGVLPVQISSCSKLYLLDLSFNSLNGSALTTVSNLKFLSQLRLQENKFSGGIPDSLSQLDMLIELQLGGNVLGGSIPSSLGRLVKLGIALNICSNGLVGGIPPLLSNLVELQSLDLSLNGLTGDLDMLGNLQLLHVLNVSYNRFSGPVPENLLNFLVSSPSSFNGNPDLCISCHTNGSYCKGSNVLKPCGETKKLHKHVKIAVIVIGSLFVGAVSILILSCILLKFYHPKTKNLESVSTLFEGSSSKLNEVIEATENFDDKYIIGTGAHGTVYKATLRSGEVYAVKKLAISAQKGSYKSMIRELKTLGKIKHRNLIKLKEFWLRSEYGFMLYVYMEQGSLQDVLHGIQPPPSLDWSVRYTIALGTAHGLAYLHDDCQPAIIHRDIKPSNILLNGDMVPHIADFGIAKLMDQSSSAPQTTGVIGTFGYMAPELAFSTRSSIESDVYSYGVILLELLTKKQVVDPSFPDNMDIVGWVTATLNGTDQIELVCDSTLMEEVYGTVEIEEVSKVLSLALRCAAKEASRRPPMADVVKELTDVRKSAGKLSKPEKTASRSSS
Source text: We identified rice homologues of AtPEPR1 in the Rice Annotation Project database (see the website located at www.rapdb.dna.affrc.go.jp). The rice homologues, OsPEPR1 (Os08g0446200) and OsPEPR2 (Os08g0446400), have 60% and 62% amino acid similarities, respectively. The OsPEPR1 has 26 LRRs in the extracellular region, which is the same as AtPEPR1. The OsPEPR2 has a shorter extracellular region with 22 LRRs. Transgenic tobacco cells expressing either OsPEPR1 or OsPEPR2 were created to examine the possibility of receptor binding to monocot peptides. OsPep3a, OsPep3b, OsPep3c, ZmPep1 and ZmPep4a were supplied to suspension cultured transgenic tobacco cells, and medium pH was measured. OsPep3a, OsPep3b, ZmPep1 and ZmPep4a caused medium alkalinization in OsPEPR1 expressing cells with a 1.2 pH unit increase and a half-maximal activity of 0.25 nM.

[4] = Arabidopsis suspension cultured cells, pH of media after 20 min
[5] = AtPEPR1 expressing tobacco cells

15-mer RGKEKVSSGRPGQHN with Gly at position 9 replaced by Ala; inactive derivative of AtPep1 [Gly to Ala substitution at position 9]
activity in the alkalinization assay [1, 4]: little activity | EC50 ([1]; Arabidopsis suspension cultured cells, pH of media after 20 min, read-out: half-maximal activity in the alkalinization assay): > 250000 pM | competition with the non-substituted 15-mer for receptor binding [2]: neither of these analogs were able to compete | Pst DC3000 growth in leaves after pre-infiltration [3]: not observed

15-mer RGKEKVSSGRPGQHN with Ser at position 7 replaced by Ala (-ASGR-) [Ser to Ala substitution at position 7]
activity in the alkalinization assay [1, 4]: little activity | competition with the non-substituted 15-mer for receptor binding [2]: neither of these analogs were able to compete

CC(C)[C@H](NC(=O)[C@H](CCCCN)NC(=O)[C@@H](NC(=O)[C@H](C)NC(=O)[C@@H](N)Cc1ccc(O)c(I)c1)[C@@H](C)O)C(=O)N[C@@H](CCCCN)C(=O)N[C@@H](C)C(=O)N[C@@H](CCCCN)C(=O)N[C@@H](CCC(N)=O)C(=O)N[C@@H](CCCNC(=N)N)C(=O)NCC(=O)N[C@@H](CCCCN)C(=O)N[C@@H](CCC(=O)O)C(=O)N[C@@H](CCCCN)C(=O)N[C@H](C(=O)N[C@@H](CO)C(=O)N[C@@H](CO)C(=O)NCC(=O)N[C@@H](CCCNC(=N)N)C(=O)N1CCC[C@H]1C(=O)NCC(=O)N[C@@H](CCC(N)=O)C(=O)N[C@@H](Cc1c[nH]cn1)C(=O)N[C@@H](CC(N)=O)C(=O)O)C(C)C [mono-iodo-Tyr-AtPep1] (H-[Tyr(3-I)]ATKVKAKQRGKEKVSSGRPGQHN-OH)
activity in the alkalinization assay [1, 4]: as fully active as AtPep1 | time to equilibration of binding [2]: ≤ 4 min | peptide concentration saturating the sites ([2]; 10^6 cells/assay): about 0.1 nM | Kd ([2]; Scatchard analysis of the saturation data, Arabidopsis suspension cultured cells): 250 pM | time to maximal binding to Arabidopsis cells ([2]; saturation kinetics): ≤ 10 min

EIKARGKNKTKPTPSSGKGGKHN (EIKARGKNKTKPTPSSGKGGKHN) [AtPep4]
change in pH (AtPEPR1; [5]): did not increase medium pH | alkalinization of the medium (AtPEPR1; [5]): weaker activity

GLPGKKNVLKKSRESSGKPGGTN [AtPep5, GLPGKKNVLKKSRESSGKPGGTN]
EC50 (AtPEPR1): ~250 pM

ITAVLRRRPRPPPYSSGRPGQNN [AtPep6, ITAVLRRRPRPPPYSSGRPGQNN]
EC50 (AtPEPR1): ~250 pM | maximal change (AtPEPR1; [5]): 1.2 pH units

RGKEKVSSGRPGQHN [Peptide 15-mer]
activity at the lowest concentration tested ([1]; 0.25 nM): substantial activity | activity in the alkalinization assay [1, 4]: nearly as active as the native peptide

RRPTPPGGAGPREGSGGRGGVIH [OsPep3b, RRPTPPGGAGPREGSGGRGGVIH]
medium pH increase (OsPEPR1): 1.2 pH unit | EC50 (OsPEPR1): 250 pM

SSGRPGQHN
activity in the alkalinization assay [1, 4]: inactive

VRRRPTTPGRPREGSGGNGGNHH [ZmPep1, VRRRPTTPGRPREGSGGNGGNHH]
medium pH increase (OsPEPR1): 1.2 pH unit | EC50 (OsPEPR1): 250 pM

VSGNVAARKGKQQTSSGKGGGTN (VSGNVAARKGKQQTSSGKGGGTN) [AtPep7]
change in pH (AtPEPR1; [5]): did not increase medium pH | alkalinization of the medium (AtPEPR1; [5]): weaker activity

azido-Cys-AtPep1: Cys-AtPep1 coupled through a disulfide bond to the photoaffinity cross-linker APDP (C(APDP″)ATKVKAKQRGKEKVSSGRPGQHN)
activity in the alkalinization assay [1, 4]: as fully active as the native peptide
